Measurements from PMC7904827 (Scientific Reports, 2021).

Columns and labels:
[1] = 100 µM, same conditions, compared with GK-667; cited from earlier work
[2] = system: neonatal ventricular cardiomyocytes (NVCMs); test: In vitro cardioprotection bioassay against daunorubicin toxicity (LDH release); format: cell-based, rat; conditions: 3 h preincubation, DAU 1.2 µM, LDH release after 48 h
Experimental: NVCMs were isolated in-house from 1- to 3-day-old Wistar rats as described previously. The use of animals and experimental protocols were approved by Charles University, Faculty of Pharmacy Animal Welfare Committee. All experiments were performed in accordance with Directive 2010/63/EU on the Protection of Animals Used for Scientific Purposes and in compliance with Animal Research: Reporting of In Vivo Experiments (ARRIVE) guidelines. Newly isolated cardiomyocytes were left for 40 h to form a monolayer of spontaneously beating cardiomyocytes in seeding medium (DMEM/F12 supplemented with 10% HS, 5% FBS, 4% PYR and 1% P/S), which was then replaced with culture medium (DMEM/F12 supplemented with 5% FBS, 4% PYR and 1% P/S). The medium was replaced again after 24 h for new culture medium.
After 3 h, DAU solution (1.2 µM) was added to the media. After another 3 h, the medium was replaced with new (drug-free) exposure medium, and the cardiomyocytes were then kept until the end of the experiment. In addition to cytoprotective properties, the toxicity of the studied agent was also examined; this experiment was performed as described above with only the DAU addition step omitted.
Forty-five hours after the last medium exchange, a sample of medium was taken from each well to assess lactate dehydrogenase (LDH) activity[27]–[29]. For details, see the Supplementary material.
1.5 LDH activity evaluation
The control wells were treated with lysis buffer (0.1 M potassium phosphate, 1% Triton
X-100, 1 mM DTT, 2 mM EDTA; pH 7.8; 15 min; room temperature) to measure the total
cellular LDH level (sum of the activity in the control medium and the lysate). The activity of
LDH was assayed in Tris-HCl buffer (pH 8.9) containing 35 mM sodium lactate and 5 mM
NAD+. The rate of NAD+ reduction was monitored spectrophotometrically at 340 nm for 2 min.
The slope of the linear region and molar absorption coefficient e = 6.22*10 3 M/cm were used
to calculate the LDH activity, and the data were expressed as a percentage of total L DH activity. […]

[3] = system: topoisomerase IIβ (TOP2B); conditions: compared with DEX; cited from earlier work

Row | Compound | decomposition in DMEM [1] | lowest concentration with significant protection against DAU-induced toxicity [2] [µM] | potency in the TOP2B inhibitory assay [3]
1 | CC(C)COC(=O)OCN1C(=O)CN(CCN2CC(=O)N(COC(=O)OCC(C)C)C(=O)C2)CC1=O [sobuzoxane] | much slower | – | –
2 | ICRF-193 [reference compound] | – | 0.3 | markedly higher potency
